These results are taken from patent US20200207726A1, “INDOLINYL SULFONAMIDE AND RELATED COMPOUNDS FOR USE AS AGONISTS OF RORY AND THE TREATMENT OF DISEASE” (Lycera Corporation, priority 2017, published 2020).

pEC50: −log10 of the molar value.

Assay [1] has as its target T1, Gal4-RORγ-LBD (Homo sapiens, UniProt P51449).
T1 construct: expressed in transfected cells; host or cells: HEK-293 cells, pcDNA3.1neo plasmid
T1 sequence (P51449 269-508 limits assumed): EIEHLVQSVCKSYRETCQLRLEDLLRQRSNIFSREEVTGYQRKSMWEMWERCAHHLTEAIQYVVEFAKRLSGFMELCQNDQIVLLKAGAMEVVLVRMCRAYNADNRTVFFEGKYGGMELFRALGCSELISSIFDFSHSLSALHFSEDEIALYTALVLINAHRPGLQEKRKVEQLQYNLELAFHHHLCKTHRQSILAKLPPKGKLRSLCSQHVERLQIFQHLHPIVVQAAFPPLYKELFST
In words: Gal4-RORγ Luciferase Reporter Assay in HEK-293T Cells. It counts as cell-based. To be noted: for pEC50: HEK-293 cells, with 2 μM ursolic acid, overnight incubation; for Gal4-RORγ Assay Max Response: upper plateau of 4-parameter fit, luciferase signal in absence of ursolic acid or test compound defined at 100. The method, then:
In the following protocol, HEK-293 cells were transfected with a construct comprising the Gal4 DNA binding domain fused to the ligand binding domain of RORγ (Gal4-RORγ-LBD) in a pcDNA3.1neo plasmid, and also with a reporter construct comprising pGL4.31 Gal4-luciferase (Promega). Control cells were prepared similarly using empty pcDNA3.1neo and pGL4.31 vectors.
Trans-IT reagent (Mirus, 60 μL) at room temperature was added drop wise to OptiMEM (Invitrogen, 1.5 ml). This reagent mixture was mixed by inversion then incubated for 5 to 30 minutes at room temperature. It then was added to a solution of both expression vectors (5 μg each), mixed, and incubated at room temperature for about 20 minutes. HEK-293 cells were harvested from incubation flasks by removing the media, treating with TrypLE Express (Invitrogen), and incubating until the cells detached from the bottom of the flask (approximately 2-5 minutes). 10 Million cells were collected by centrifugation and re-suspended in 10 mL of Dulbecco's Modified Eagle Medium, High Glucose (DMEM, Invitrogen) containing 10% Fetal Bovine Serum and 100 IU each of penicillin and streptomycin. The re-suspended cells and the transfection mixture were added to a T75 flask, mixed and incubated overnight at 37° C. and 5% CO2.
The cells were harvested as described above, counted, and centrifuged to obtain the desired number of cells, then re-suspended in complete growth media at 0.75×10^6 cells/mL. The RORγ antagonist, ursolic acid, was added to the cells at a final concentration of 2 μM. Cells were plated at 20 μL of cell suspension/well (10,000-15,000 cells/well) in white tissue culture treated 384 well plates. Test compounds were dissolved at 10 mM in DMSO then diluted into complete growth medium to 5× the final intended test concentration. These drug stock solutions, 5 μL/well were added to the tissue culture plate. The final DMSO concentration was 0.2%. The plates were briefly centrifuged then incubated overnight at 37° C. and 5% CO2. To conduct the assay, the tissue culture plates were allowed to equilibrate to room temperature and One-Glo luciferase reagent (Promega, 25 μL/well) was added. The plates were briefly centrifuged then incubated at room temperature for 10 minutes. The luciferase intensity was read on an Envision plate reader (Perkin Elmer). RORγ activity was determined relative to controls and plotted as a function of test compound concentration using PRISM (GraphPad) to determine a 50% effective concentration (EC50). The luciferase signal in the absence of ursolic acid or test compound is defined at 100. The Max Response is the upper plateau in the signal as determined by line-fit using a 4-parameter logistic model in PRISM (GraphPad).

Assay [2] addresses T2, RORγ-LBD (Homo sapiens, UniProt P51449).
T2 construct: made in house; host or cells: SF9 cells, baculovirus expression system (lysate used)
T2 sequence (P51449 269-508 limits assumed): T1 sequence (P51449 269-508 limits assumed)
As to the kind of experiment: RORγ-Ligand Binding Domain (LBD) TR-FRET Assay. It counts as biochemical. Particulars: for TR-FRET Assay Max Response: upper plateau of 4-parameter fit, signal in absence of ursolic acid or test compound set as 100; for pEC50: with 2 μM ursolic acid (RORγ antagonist), highest test concentration 10 μM. The method, then: HIS-tagged RORγ-LBD protein was expressed in SF9 cells using a baculovirus expression system. The lysate was diluted in assay buffer (50 mM Tris pH 7.0, 50 mM KCl, 1 mM EDTA, 0.1 mM DTT, 0.01% BSA) to obtain RORγ-LBD final concentration of −3 nM in a 384-well assay plate (need to titrate for each batch of protein).
A stock of biotinylated-LXXLL peptide from coactivator SRC1 (Biotin-[…]) was prepared in assay buffer and added to each well (200 nM final concentration). A solution of Europium tagged anti-HIS antibody (0.6 nM final concentration) and APC-conjugated streptavidin (30 nM final concentration) were also added to each well. RORγ antagonist ursolic acid was also included at a final concentration of 2 μM. Compounds were diluted in DMSO and further diluted in assay buffer with a final DMSO concentration at 1%. The highest concentration of test compound analyzed was 10 μM.
The final assay mixture was incubated overnight at 4° C. or 2 hours at room temperature, and the fluorescence signal was measured on an Envision plate reader: (Excitation filter=340 nm; APC emission=665 nm; Europium emission=615 nm; dichroic mirror=D400/D630; delay time=100 μs, integration time=200 μs). 50% Effective concentration (EC50) values for test compounds were calculated from the quotient of the fluorescence signal at 665 nm divided by the fluorescence signal at 615 nm. The quotient of the fluorescence signals in the absence of ursolic acid or test compound is set as 100. Max Response is defined as the upper plateau in the signal as determined by line-fit using a 4-parameter logistic model in PRISM (GraphPad).
For orientation: TR-FRET usually uses a lanthanide donor and a delayed reading to cut background.

`O=C(O)CCc1cc2ccc(-c3cc(F)ccc3F)cc2n1S(=O)(=O)c1cccc(C(F)(F)F)c1` [Example 8, 3-(6-(2,5-difluorophenyl)-1-((3-(trifluoromethyl)phenyl)sulfonyl)-1H-indol-2-yl)propanoic acid]: in assay [1], the pEC50 was 5.30 to 6.30 and the “Gal4-RORγ Assay Max Response” value is reported as “** (a value in the range of greater than 90 to 150)”. In addition, in assay [2], the “TR-FRET Assay Max Response” value is “*** (a value in the range of greater than 150 to 200)” and the pEC50 was 5.30 to 6.30.

On to `O=S(=O)(c1cccc(C(F)(F)F)c1)N1COc2ccc(-c3cc(F)ccc3F)cc21` [Example 1, 5-(2,5-difluorophenyl)-3-((3-(trifluoromethyl)phenyl)sulfonyl)-2,3-dihydrobenzo[d]oxazole], for which, in assay [1], the pEC50 was over 6.30 and the “Gal4-RORγ Assay Max Response” value is “** (a value in the range of greater than 90 to 150)”. In assay [2], the “TR-FRET Assay Max Response” value is given as “*** (a value in the range of greater than 150 to 200)” and the pEC50 was over 6.30.

For `COC(=O)CCC1Cc2ccc(-c3cc(F)ccc3F)cc2N1S(=O)(=O)c1cccc(C(F)(F)F)c1` (stereo not drawn) [Example 5, methyl 3-(6-(2,5-difluorophenyl)-1-((3-(trifluoromethyl)phenyl)sulfonyl)indolin-2-yl)propanoate], in assay [1], the pEC50 was over 6.30 and the “Gal4-RORγ Assay Max Response” value is reported as “** (a value in the range of greater than 90 to 150)”. In assay [2], the “TR-FRET Assay Max Response” value is “*** (a value in the range of greater than 150 to 200)” and the pEC50 was over 6.30.

Consider `CCOC(=O)CC1CN(S(=O)(=O)c2cccc(C(F)(F)F)c2)c2cc(-c3cc(F)ccc3F)ccc21` (stereo not drawn) [Example 2, ethyl 2-(6-(2,5-difluorophenyl)-1-((3-(trifluoromethyl)phenyl)sulfonyl)indolin-3-yl)acetate], for which, in assay [1], the negative-log EC50 (pEC50) was over 6.30 and the “Gal4-RORγ Assay Max Response” value is listed as “** (a value in the range of greater than 90 to 150)”. Besides, in assay [2], the “TR-FRET Assay Max Response” value was “*** (a value in the range of greater than 150 to 200)” and the pEC50 was over 6.30.

For the compound `COC(=O)CCc1cc2ccc(-c3cc(F)ccc3F)cc2n1S(=O)(=O)c1cccc(C(F)(F)F)c1` [Example 7, methyl 3-(6-(2,5-difluorophenyl)-1-((3-(trifluoromethyl)phenyl)sulfonyl)-1H-indol-2-yl)propanoate], in assay [1], the pEC50 is 5.30 to 6.30 and the “Gal4-RORγ Assay Max Response” value is recorded as “* (a value in the range of 25 to 90)”. Moreover, in assay [2], the “TR-FRET Assay Max Response” value is reported as “*** (a value in the range of greater than 150 to 200)” and the pEC50 was 5.30 to 6.30.

As for `O=C(O)CCC1Cc2ccc(-c3cc(F)ccc3F)cc2N1S(=O)(=O)c1cccc(C(F)(F)F)c1` (stereo not drawn) [Example 6, 3-(6-(2,5-difluorophenyl)-1-((3-(trifluoromethyl)phenyl)sulfonyl)indolin-2-yl)propanoic acid], in assay [1], the pEC50 is 5.30 to 6.30 and the “Gal4-RORγ Assay Max Response” value is “*** (a value in the range of greater than 150 to 200)”. For the same compound, in assay [2], the “TR-FRET Assay Max Response” value is recorded as “*** (a value in the range of greater than 150 to 200)” and the pEC50 was over 6.30.

Turning to `O=C(O)CC1CN(S(=O)(=O)c2cccc(C(F)(F)F)c2)c2cc(-c3cc(F)ccc3F)ccc21` (stereo not drawn) [Example 3, 2-(6-(2,5-difluorophenyl)-1-((3-(trifluoromethyl)phenyl)sulfonyl)indolin-3-yl)acetic acid], in assay [1], the pEC50 is 5.00 to 5.30 and the “Gal4-RORγ Assay Max Response” value is reported as “** (a value in the range of greater than 90 to 150)”. For the same compound, in assay [2], the “TR-FRET Assay Max Response” value is “** (a value in the range of greater than 90 to 150)” and the negative-log EC50 (pEC50) is over 6.30.

Consider `O=S(=O)(c1cccc(C(F)(F)F)c1)c1c[nH]c2ccc(-c3cc(F)ccc3F)cc12` [Example 4, 5-(2,5-difluorophenyl)-3-((3-(trifluoromethyl)phenyl)sulfonyl)-1H-indole], for which, in assay [1], the negative-log EC50 (pEC50) was under 5.00 and the “Gal4-RORγ Assay Max Response” value is listed as “* (a value in the range of 25 to 90)”.

As usually defined, the pEC50 is the negative decadic logarithm of the EC50, by convention in mol/L.
